# In patent publication US20240000950A1, “THERAPEUTIC CURE-PRO COMPOUNDS FOR TARGETED DEGRADATION OF BET DOMAIN PROTEINS, AND METHODS OF MAKING AND USING THEM” (CORNELL UNIVERSITY, priority 2020, published 2024):
# Entries after “also recorded” stand apart in the source; their conditions may differ.
# What was measured:
# Assay type in all cases: cell-based
# [1] = target: T1, BRD4 (Homo sapiens, UniProt O60885); assay: CURE-PRO-mediated BRD4 degradation in HeLa cells, Western blot; parameters: endogenous in cells; host or cells: HeLa; conditions: 24 h
# Method: (§1) All cell lines were purchased from ATCC or DSMZ and grown at 37° C. with 5% C02. Human HeLa cells were cultured in complete growth medium (Dulbecco's modified Eagle's medium (DMEM) supplemented with 10% FBS); MCF7 cells were cultured in complete growth medium (Dulbecco's modified Eagle's medium (DMEM) supplemented with 10% FBS and 0.01 mg/ml human recombinant insulin (Sigma Aldrich); Namalwa and MOLM-13 cells were cultured in complete growth medium (RPMI 1640 medium supplemented with 10% FBS); MV-4-11 were cultured in complete growth medium (Iscove's Modified Dulbecco's medium, supplemented with 10% FBS); HCT116 cells were cultured in complete growth medium (McCoy's 5a Medium supplemented with 10% FBS). For cellular degradation of BRD4 studies, cells were seeded in a 12-well plate at 70-80% confluency, allowed to attach overnight, and incubated with the indicated compounds for the indicated time. When indicated, a 15-minute pretreatment with 10 μM pomalidomide, 10 μM VHL298, 10 μM Nutlin3a, 1 μM MG-132 or 1 μM Carfilzomib was performed before the addition of CURE-PROs. For washout studies, after CURE-PRO treatment, media was aspirated and incubated with complete medium for the indicated time before lysis.
# Anti-BRD4 (13440, 1:1,000 dilution for Western Blot and 1:25 dilution for ProteinSimple); Anti-BRD2 (5848 1:1,000 dilution for Western Blot and 1:25 dilution for ProteinSimple); β-Actin (3700, 1:2,000 dilution for Western Blot), β-Actin (4970, 1:50 dilution for ProteinSimple) anti-mouse IgG-HRP, and anti-rabbit IgG-HRP antibodies were purchased Cell Signaling Technology. Anti-GAPDH (600-401-A33, 1:100 dilution for ProteinSimple) was purchased from Rockland Immunochemicals, Inc. Anti-BRD3 (sc-81202, 1:200 dilution for Western Blot) was purchased from Santa Cruz Biotechnology.
# (§2) HeLa, MCF7, or HCT116 cells (2.5-3×10^6) were treated for 24 hours with the indicated compounds solubilized in DMSO. The cells were washed in ice-cold PBS and were then lysed in RIPA lysis buffer (150 mM NaCl, 5 mM EDTA, 1% NP-40, 0.5% sodium deoxycholate, 0.1% SDS, 50 mM Tris, pH 8.0) with Roche protease inhibitor complete cocktail and phosphatase inhibitors (10 mM sodium fluoride, 10 mM sodium pyrophosphate, 1 mM sodium orthovanadate and 20 mM β-glycerophosphate). The total protein concentrations were determined by Bradford Protein Assay and 10-20 μg of protein was loaded onto 4-15% Tris-Glycine gradient gels (Biorad). After standard gel electrophoresis, the separated proteins were transferred to PVDF membrane by wet transfer. The immunoblots were then blocked for 1 hour in 5% skim milk in TBST or 5% BSA in TBST, according to manufacturer's instructions, before an overnight incubation at 4° C. with indicated antibodies and membranes. Membranes were then incubated with the appropriate horseradish peroxidase-conjugated secondary antibodies (1:5,000 dilution) for 1 h at room temperature and the bands were visualized using the Clarity Max Western ECL Substrate (Biorad) and the ChemiDoc Imaging System (Biorad). Signal was detected with ECL Western Blotting Substrate (Pierce) and X-ray film processed with a Konica SRX-101 X-ray film processor or captured by Bio-Rad's Chemidoc Imaging system.
# HeLa cells (2.5×10^6) were treated for 24 hours with the sample compounds solubilized in DMSO. Compounds were added at 1-10 μM each. Standardized protein samples were electrophoresed and imaged as described in the immunoblotting description above. FIGS. 6-18 depicts the CURE-PRO-mediated BRD4 degradation for BRD monomers (JQ1 derivatives comprising of catechol linkers), and CRBN ligands, 8048 and 8049 (pomalidomide derivatives comprising boronic acid linkers) combined in a 1:1 ratio.
# HeLa cells (2.5×10^6) were treated for 24 hours with the compounds solubilized in DMSO. The compounds were added at 10 μM each. Standardized protein samples were electrophoresed and imaged as described in the immunoblotting section above. […]
# [2] = target: T1, BRD4; assay: Summary of E3 ligase directed degradation of BRD4, estimated from Western Blot or WES (Tables 1-6); parameters: endogenous in cells; host or cells: HeLa, MCF7 or HCT116; conditions: for Degradation of BRD4, combination with CRBN ligand [drawing 422] / Degradation of BRD4, combination with CRBN ligand [drawing 397] / Degradation of BRD4, combination with CRBN ligand [drawing 421]: Table 1; for Degradation of BRD4, combination with CRBN ligand [drawing 422]: CRBN ligand drawn as drawing 422 (by the text apparently 8066); for Degradation of BRD4, combination with CRBN ligand [drawing 397]: aromatic 1,2-diol- or hindered cis-1,2-diol-containing CRBN ligand drawn as drawing 397 (by the text apparently 8046); for Degradation of BRD4, combination with MDM2 ligand [drawing 431]: Table 2, aromatic 1,2-diol-containing MDM2 ligand drawn as drawing 431 (by the text apparently 8314); for Degradation of BRD4, combination with CRBN ligand [drawing 421]: CRBN ligand drawn as drawing 421 (by the text apparently 8047)
# Method: as §2
# WES Simple analysis was performed on WES system (ProteinSimple-Biotechne) according to the manufacturer's instructions. Total protein concentrations of cell lysates were determined by the Pierce BCA kit (Thermo Fisher). 3 μL of 0.3 μg/uL of the protein lysate was loaded onto a 12- to 230-kDa WES assay plate (ProteinSimple) where 300 nL sample was withdrawn through a capillary, subjected to electrophoretic separation of proteins by size, and followed by the simultaneous, HRP-based detection of proteins using the Anti-Rabbit Detection Module (Proteinsimple: #DM-001). The electropherograms were checked then the automatic peak detection was manually corrected if it was required.
# A black check mark indicates efficacy of 30% to 70% or higher protein degradation.
# [3] = tested on: MV-4-11 cells; assay: CellTiter-Glo cell viability, MV-4-11 cells
# Method: as §1
# CellTiter-Glo® 2.0 Cell Viability Assay (Promega) was carried out following the manufacturer's recommendations. Cells were seeded at a density of 1000 cells/well in a white 96 well plates (Corning, #3917) in a total volume of 100 μl with respective monomers, combinations of BRD ligands together with E3 ligase ligands or vehicle control treatment. After a 72 h incubation, 100 ul of the CellTiter-Glo® substrate was added per well and luminescence was read on a Spectramax M5 (Molecular Devices). Dose-response curves were generated using Graphpad Prism software.
# MV-4-11 cells (5×104) were treated for 24 hours with the sample compounds solubilized in DMSO. The compounds were added at 1 nM-100 μM each. Cellular viability was determined using the CellTiter-Glo® Luminescent Cell Viability Assay (Promega) described above. FIGS. 19-22 depict the CURE-PRO-mediated loss of cellular viability for BRD monomers (JQ1 derivatives comprising of catechol linkers), and CRBN ligand, 8049 (pomalidomide derivatives comprising boronic acid linkers) combined in a 1:1 ratio.
# MV-4-11 cells (1×104) were treated for 72 hours with the compounds solubilized in DMSO. Compounds were added at 10 nM-100 μM each. Cellular viability was determined using the CellTiter-Glo® Luminescent Cell Viability Assay (Promega) described above. FIGS. 47-54 depict the CURE-PRO-mediated loss of cellular viability for BRD monomers (JQ1 derivatives comprising of boronic acid linkers), and CRBN ligands, 8046, 8047, and 8066 (pomalidomide derivatives comprising diol linkers) combined in a 1:1 ratio.
# [4] = 72 h, 10 nM-100 μM, cotreated 1:1 with each of CRBN ligands 8066, 8046 and 8047, compared to monomers alone
structure (smiles),measurement,setting,value
COc1ccc2c(c1)C(c1ccc(Cl)cc1)=N[C@@H](CC(=O)NCCCCCNC(=O)c1cccc(B(O)O)c1)c1nnc(C)n1-2 [BRD-E08],BRD4 degradation,[1]; BRD ligand (monomer) alone,no change in expression is observed
same,BRD4 degradation,"[1]; co-treated 1:1 with CRBN ligand 8046, 10 μM each unless the value states a concentration, listed as BRD-E8",Degradation is observed at 100 nM and 1 μM
same,"Degradation of BRD4, combination with CRBN ligand [drawing 422]",[2],✓ (A black check mark indicates efficacy of 30% to 70% or higher protein degradation)
same,"Degradation of BRD4, combination with CRBN ligand [drawing 397]",[2],✓ (A black check mark indicates efficacy of 30% to 70% or higher protein degradation)
same,"Degradation of BRD4, combination with MDM2 ligand [drawing 431]",[2],✓ (A black check mark indicates efficacy of 30% to 70% or higher protein degradation)
"CCNC(=O)C[C@@H]1N=C(c2ccc(Cl)cc2)c2cc(OCCNC(=O)c3cccc(B(O)O)c3)ccc2-n2c(C)nnc21 [BRD-E21, (3-((2-(((4S)-6-(4-chlorophenyl)-4-(2-(ethylamino)-2-oxoethyl)-1-methyl-4H-benzo[f][1,2,4]triazolo[4,3-a][1,4]diazepin-8-yl)oxy)ethyl)carbamoyl)phenyl)boronic acid]",BRD4 degradation,[1]; BRD ligand (monomer) alone,no change in expression is observed
same,"Degradation of BRD4, combination with CRBN ligand [drawing 421]",[2],✓ (A black check mark indicates efficacy of 30% to 70% or higher protein degradation)
same,"Degradation of BRD4, combination with MDM2 ligand [drawing 431]",[2],✓ (A black check mark indicates efficacy of 30% to 70% or higher protein degradation)
"COc1ccc2c(c1)C(c1ccc(Cl)cc1)=N[C@@H](CC(=O)NCCNC(=O)/C=C/c1cccc(B(O)O)c1)c1nnc(C)n1-2 [BRD-E30, (3-((E)-3-((2-(2-((4S)-6-(4-chlorophenyl)-8-methoxy-1-methyl-4H-benzo[f][1,2,4]triazolo[4,3-a][1,4]diazepin-4-yl)acetamido)ethyl)amino)-3-oxoprop-1-en-1-yl)phenyl)boronic acid]",BRD4 degradation,[1]; BRD ligand (monomer) alone,no change in expression is observed
same,"Degradation of BRD4, combination with CRBN ligand [drawing 421]",[2],✓ (A black check mark indicates efficacy of 30% to 70% or higher protein degradation)
same,"Degradation of BRD4, combination with CRBN ligand [drawing 422]",[2],✓ (A black check mark indicates efficacy of 30% to 70% or higher protein degradation)
"CCNC(=O)C[C@@H]1N=C(c2ccc(Cl)cc2)c2cc(Sc3ccc(B(O)O)cc3)ccc2-n2c(C)nnc21 [BRD-E75, (4-(((4S)-6-(4-chlorophenyl)-4-(2-(ethylamino)-2-oxoethyl)-1-methyl-4H-benzo[f][1,2,4]triazolo[4,3-a][1,4]diazepin-8-yl)thio)phenyl)boronic acid]",toxicity / loss of cellular viability (CellTiter-Glo),[3]; [4],reduced viability; also recorded: increased toxicity
same,"Degradation of BRD4, combination with MDM2 ligand [drawing 431]",[2],✓ (A black check mark indicates efficacy of 30% to 70% or higher protein degradation)
CCNC(=O)C[C@@H]1N=C(c2ccc(Cl)cc2)c2cc(Sc3cccc(B(O)O)c3)ccc2-n2c(C)nnc21 [BRD-E76],toxicity / loss of cellular viability (CellTiter-Glo),[3]; [4],reduced viability; also recorded: increased toxicity
same,"Degradation of BRD4, combination with CRBN ligand [drawing 397]",[2],✓ (A black check mark indicates efficacy of 30% to 70% or higher protein degradation)
CCNC(=O)C[C@@H]1N=C(c2ccc(Cl)cc2)c2cc(OCCCCCCCNC(=O)c3ccc(B(O)O)cc3)ccc2-n2c(C)nnc21 [BRD-E78],toxicity / loss of cellular viability (CellTiter-Glo),[3]; [4],reduced viability; also recorded: increased toxicity
same,"Degradation of BRD4, combination with VHL ligand [drawing 442]","[2]; Table 3, aromatic 1,2-diol-containing VHL ligand drawn as drawing 442 (by the text apparently 8305)",✓ (A black check mark indicates efficacy of 30% to 70% or higher protein degradation)
"COc1ccc2c(c1)C(c1ccc(Cl)cc1)=N[C@@H](CC(=O)NCCc1ccc(O)c(O)c1)c1nnc(C)n1-2 [BRD-N10, (S)-2-(6-(4-chlorophenyl)-8-methoxy-1-methyl-4H-benzo[f][1,2,4]triazolo[4,3-a][1,4]diazepin-4-yl)-N-(3,4-dihydroxyphenethyl)acetamide]",toxicity / loss of cellular viability (CellTiter-Glo),"[3]; 1 nM-100 μM, cotreated 1:1 with CRBN ligand 8049",a concentration-dependent loss in cellular viability was observed; also recorded: increased toxicity
same,"Degradation of BRD4, combination with CRBN ligand [drawing 457]","[2]; Table 4, aryl-boronic acid-containing CRBN ligand drawn as drawing 457 (by the text apparently 8048)",✓ (A black check mark indicates efficacy of 30% to 70% or higher protein degradation)
same,"Degradation of BRD4, combination with CRBN ligand [drawing 458]","[2]; Table 4, aryl-boronic acid-containing CRBN ligand drawn as drawing 458 (by the text apparently 8049)",✓ (A black check mark indicates efficacy of 30% to 70% or higher protein degradation)
same,"Degradation of BRD4, combination with MDM2 ligand [drawing 463]","[2]; Table 5, aryl-boronic acid-containing MDM2 ligand drawn as drawing 463 (apparently 8310)",✓ (A black check mark indicates efficacy of 30% to 70% or higher protein degradation)
